According to article PMC12667509, “Inhibition of Macrophage ARID3A Alleviates Myocardial Ischemia‐Reperfusion Injury After Heart Transplantation by Reducing THBS1/CD47 Signaling‐Mediated Neutrophil Extracellular Traps Formation” (Advanced Science, 2025):

Molecular target: T1, ARID3A (Homo sapiens, UniProt Q99856)
T1 construct: recombinant human protein immobilised on CM5 chip
T1 sequence (Q99856 1-593): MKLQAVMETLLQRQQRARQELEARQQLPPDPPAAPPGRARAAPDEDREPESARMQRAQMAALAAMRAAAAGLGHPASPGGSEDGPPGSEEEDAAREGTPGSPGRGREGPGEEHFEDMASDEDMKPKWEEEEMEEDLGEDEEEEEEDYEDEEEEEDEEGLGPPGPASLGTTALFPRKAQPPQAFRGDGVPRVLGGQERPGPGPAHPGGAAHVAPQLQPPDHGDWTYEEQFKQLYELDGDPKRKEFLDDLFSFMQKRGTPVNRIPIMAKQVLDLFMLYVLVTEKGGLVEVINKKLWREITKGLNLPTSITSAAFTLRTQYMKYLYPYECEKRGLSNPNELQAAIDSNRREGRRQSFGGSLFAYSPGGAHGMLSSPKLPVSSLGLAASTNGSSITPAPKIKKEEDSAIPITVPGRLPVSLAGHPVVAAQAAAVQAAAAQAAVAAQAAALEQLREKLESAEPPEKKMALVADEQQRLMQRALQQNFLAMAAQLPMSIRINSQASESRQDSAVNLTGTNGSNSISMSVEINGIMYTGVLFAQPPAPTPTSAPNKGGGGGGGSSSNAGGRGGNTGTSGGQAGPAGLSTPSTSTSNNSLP
Assay: SPR (Biacore T200, CM5 chip, kinetic analysis)
Assay type: binding

**Q.** How did the Kd turn out when `C=C(CC(=O)OCCCCCCCC)C(=O)O` [4‐OI, 4‐octyl itaconate] was run?
**A.** Its Kd is 7.64 µM.
